Data as given in US8299021B2, “Macrocyclic inhibitors of hepatitis C virus replication” (InterMune, Inc., priority 2005, dated 2012).

Biological target: T1, NS3-NS4 protease (full-length NS3/NS4A-2) (Hepatitis C virus genotype 1a, UniProt P27958)
T1 construct: Recombinant E. coli or Baculovirus full-length NS3 was diluted to 3.33 μM with assay buffer; made in house; host or cells: E. coli or baculovirus (insect cells)
Assay: NS3-NS4 protease assay / NS3 inhibition assay (RETS1 substrate, fluorescence kinetic read)
Format: biochemical
Details: not given
Experimental: NS3 complex formation with NS4A-2.
The appropriate amount of NS4A-2 to 8.3 mM in assay buffer was added to equal the volume of NS3 in step 2.1.1 (conversion factor—3.8 mg/272 μL assay buffer). The material was transferred to an eppendorf tube and place in water bath in 4° C. refrigerator.
After equilibration to 4° C., equal volumes of NS3 and NS4A-2 solutions were combined in an eppendorf tube, mix gently with a manual pipettor, and incubate mixture for 15 minutes in the 4° C. water bath.
After 15 minutes at 4° C., the NS3/NS4A-2 eppendorf tube was removed and place it in a room temperature water bath for 10 minutes. NS3/NS4A-2 was alliquoted at appropriate volumes and store at −80° C. (E. coli NS3 run at 2 nM in assay, aliquot at 25 μL. BV NS3 run at 3 nM in assay, aliquot at 30 μL).
Sample compounds were dissolved to 10 mM in DMSO then diluted to 2.5 mM (1:4) in DMSO.
The E. coli. […] Using the manual multichannel pipettor, careful not to introduce bubbles into the plate, add 50 μL assay buffer to wells A01-H01 of a black Costar 96-well polypropylene storage plate.
Using the manual multichannel pipettor, careful not to introduce bubbles into the plate, add 50 μL of diluted NS3/NS4A-2 from step 2.2.6 to wells A02-H12 of plate in step 2.2.7. Using the manual multichannel pipettor, careful not to introduce bubbles into the plate, transfer 25 μL of the wells in drug dilution plate in step 2.2.5 to corresponding wells in assay plate in step 2.2.8. Change tips on multichannel pipettor for each row of compounds transferred. Using the manual multichannel pipettor, careful not to introduce bubbles into the plate, mix the wells from the assay plate in step 2.2.9 by aspirating and dispensing 35 μL of the 75 μL in each well five times. Change tips on multichannel pipettor for each row of wells mixed. Cover plate with a polystyrene plate lid and pre-incubate the plate from step 2.2.10 containing NS3 protease and sample compounds 10 minutes at room temperature. While plate from step 2.2.11 is pre-incubating, dilute RETS1 substrate in a 15 mL polypropylene centrifuge tube.
After the plate in step is done pre-incubating, and using the manual multichannel, add 25 μL of substrate to all wells on the plate. Quickly mix the plate as in step 2.2.10, mixing 65 μL of the 100 μL in the wells.
Read the plate in kinetic mode on the Molecular Devices SpectraMax
IC50s are determined using a four parameter curve fit equation, and converted to Ki's using the following Km's:
where Ki=IC50/(1+[S]/Km))

T1 sequence (P27958 1027-1657): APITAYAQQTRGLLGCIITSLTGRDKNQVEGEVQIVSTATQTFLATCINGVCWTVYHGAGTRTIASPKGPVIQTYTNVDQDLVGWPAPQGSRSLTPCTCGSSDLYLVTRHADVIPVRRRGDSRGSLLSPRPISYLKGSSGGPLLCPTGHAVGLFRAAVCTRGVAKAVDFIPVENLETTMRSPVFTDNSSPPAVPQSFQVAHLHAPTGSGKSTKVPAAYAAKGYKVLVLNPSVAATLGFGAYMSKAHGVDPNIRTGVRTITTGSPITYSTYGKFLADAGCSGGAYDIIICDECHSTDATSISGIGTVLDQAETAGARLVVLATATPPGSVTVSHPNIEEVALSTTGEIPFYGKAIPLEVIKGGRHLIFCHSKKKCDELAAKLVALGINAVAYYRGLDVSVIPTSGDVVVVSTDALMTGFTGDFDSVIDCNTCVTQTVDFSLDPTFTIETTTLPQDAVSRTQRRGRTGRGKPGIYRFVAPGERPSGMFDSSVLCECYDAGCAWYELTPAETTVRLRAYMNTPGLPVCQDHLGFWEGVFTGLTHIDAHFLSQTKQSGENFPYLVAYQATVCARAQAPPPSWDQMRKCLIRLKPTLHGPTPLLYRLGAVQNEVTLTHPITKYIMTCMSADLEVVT

O=C(N[C@H]1CCCCC/C=C\[C@@H]2C[C@@]2(C(=O)NS(=O)(=O)C2CC2)NC(=O)[C@@H]2C[C@@H](OC(=O)N3Cc4cccc(F)c4C3)CN2C1=O)C(O)C(F)(F)F (single isomer, unassigned) [Compound 247] showed an IC50 of less than 100 nM.

Same assay, conditions: Table 22; read-out: NS3-NS4 IC50

CC(C)(C)OC(=O)N[C@H]1CCCCC/C=C\[C@@H]2C[C@@]2(C(=O)Nc2ccccc2Cl)NC(=O)[C@@H]2CCCN2C1=O [Compound 2309] and CC(C)(C)OC(=O)N[C@H]1CCCCC/C=C\[C@@H]2C[C@@]2(C(=O)NCc2ccccc2)NC(=O)[C@@H]2CCCN2C1=O [Compound 2307] cannot be ordered by IC50: less than 1000 nM for the first, less than 1000 nM for the second.

CC(C)(C)OC(=O)N[C@H]1CCCCC/C=C\[C@@H]2C[C@@]2(C(=O)NC#N)NC(=O)[C@@H]2CCCN2C1=O [Compound 2306] and CC(C)(C)OC(=O)N[C@H]1CCCCC/C=C\[C@@H]2C[C@@]2(C(=O)NC2CCC2)NC(=O)[C@@H]2CCCN2C1=O [Compound 2303] cannot be ordered by IC50: less than 1000 nM for the first, less than 1000 nM for the second.

CC(C)(C)OC(=O)N[C@H]1CCCCC/C=C\[C@@H]2C[C@@]2(C(=O)NCc2ccc(Cl)cc2)NC(=O)[C@@H]2CCCN2C1=O [Compound 2308] and CC(C)(C)OC(=O)N[C@H]1CCCCC/C=C\[C@@H]2C[C@@]2(C(=O)NCc2cccc(C(=O)O)c2)NC(=O)[C@@H]2CCCN2C1=O [Compound 2310] cannot be ordered by IC50: less than 1000 nM for the first, less than 1000 nM for the second.

COc1cccc(NC(=O)[C@@]23C[C@H]2/C=C\CCCCC[C@H](NC(=O)OC(C)(C)C)C(=O)N2CCC[C@H]2C(=O)N3)c1 [Compound 2312] and C[C@H](NC(=O)[C@@]12C[C@H]1/C=C\CCCCC[C@H](NC(=O)OC(C)(C)C)C(=O)N1CCC[C@H]1C(=O)N2)c1ccccc1 [Compound 2301] cannot be ordered by IC50: less than 1000 nM for the first, less than 10000 nM for the second.

In the case of C[C@@H](NC(=O)[C@@]12C[C@H]1/C=C\CCCCC[C@H](NC(=O)OC(C)(C)C)C(=O)N1CCC[C@H]1C(=O)N2)c1ccccc1 [Compound 2311], the IC50 is reported as less than 1000 nM.

Same assay, conditions: Table 25; read-out: NS3-NS4 IC50

In the case of Cc1ccc([S+]([O-])NC(=O)C23CC2C=CCCCCCC(NC(=O)OC(C)(C)C)C(=O)N2CC(OC(=O)N4Cc5ccccc5C4)CC2C(=O)N3)cc1 (stereo not drawn) [Compound 2603], the IC50 is reported as less than 10000 nM.

Same assay, conditions: read-out: NS3-NS4 IC50

CC(C)(C)OC(=O)N[C@H]1CCCCC/C=C\[C@@H]2C[C@@]2(C(=O)NS(=O)(=O)c2ccc(Cl)cc2)NC(=O)[C@@H]2CCCN2C1=O [Compound 2129] and COc1ccc(NS(=O)(=O)NC(=O)[C@@]23C[C@H]2/C=C\CCCCC[C@H](NC(=O)OC(C)(C)C)C(=O)N2CCC[C@H]2C(=O)N3)cc1 [Compound 2244] cannot be ordered by IC50: less than 10000 nM for the first, less than 100 nM for the second.

CC(C)(C)OC(=O)N[C@H]1CCCCC/C=C\[C@@H]2C[C@@]2(C(=O)NS(=O)(=O)NC2CCC2)NC(=O)[C@@H]2CCCN2C1=O [Compound 2214] and CC(C)CNS(=O)(=O)NC(=O)[C@@]12C[C@H]1/C=C\CCCCC[C@H](NC(=O)OC(C)(C)C)C(=O)N1CCC[C@H]1C(=O)N2 [Compound 2218] cannot be ordered by IC50: less than 1000 nM for the first, less than 100 nM for the second.

Compared with CC(C)(C)OC(=O)N[C@H]1CCCCC/C=C\[C@@H]2C[C@@]2(C(=O)NS(=O)(=O)Nc2ccc(Cl)cc2)NC(=O)[C@@H]2CCCN2C1=O [Compound 2247], CC(C)(C)OC(=O)NC1CCCCCC=CC2CC2(C(=O)NS(=O)(=O)c2cc(Cl)cc(Cl)c2)NC(=O)C2CCCN2C1=O (stereo not drawn) [Compound 2108] is lower in IC50: greater than 10000 nM for the first, less than 10000 nM for the second.

CC(C)(C)OC(=O)N[C@H]1CCCCC/C=C\[C@@H]2C[C@@]2(C(=O)NS(=O)(=O)NC2CCCC2)NC(=O)[C@@H]2CCCN2C1=O [Compound 2215] and CC(C)(C)OC(=O)N[C@H]1CCCCC/C=C\[C@@H]2C[C@@]2(C(=O)NS(=O)(=O)c2ccccc2)NC(=O)[C@@H]2CCCN2C1=O [Compound 2101] cannot be ordered by IC50: less than 1000 nM for the first, less than 10000 nM for the second.

CC1CCCCN1S(=O)(=O)NC(=O)[C@@]12C[C@H]1/C=C\CCCCC[C@H](NC(=O)OC(C)(C)C)C(=O)N1CCC[C@H]1C(=O)N2 (stereo partly drawn) [Compound 2225] and CCC1CCCCN1S(=O)(=O)NC(=O)[C@@]12C[C@H]1/C=C\CCCCC[C@H](NC(=O)OC(C)(C)C)C(=O)N1CCC[C@H]1C(=O)N2 (stereo partly drawn) [Compound 2220] cannot be ordered by IC50: less than 10000 nM for the first, less than 1000 nM for the second.

CCc1ccc(NS(=O)(=O)NC(=O)[C@@]23C[C@H]2/C=C\CCCCC[C@H](NC(=O)OC(C)(C)C)C(=O)N2CCC[C@H]2C(=O)N3)cc1 [Compound 2242] and CC(C)(C)OC(=O)NC1CCCCCC=CC2CC2(C(=O)NS(=O)(=O)C(F)(F)F)NC(=O)C2CCCN2C1=O (stereo not drawn) [Compound 2107] cannot be ordered by IC50: less than 1000 nM for the first, less than 1000 nM for the second.

COC(=O)C1CCCCN1S(=O)(=O)NC(=O)[C@@]12C[C@H]1/C=C\CCCCC[C@H](NC(=O)OC(C)(C)C)C(=O)N1CCC[C@H]1C(=O)N2 (stereo partly drawn) [Compound 2221] and CC(C)(C)OC(=O)N[C@H]1CCCCC/C=C\[C@@H]2C[C@@]2(C(=O)NS(=O)(=O)c2ccc(Cl)cc2Cl)NC(=O)[C@@H]2CCCN2C1=O [Compound 2153] cannot be ordered by IC50: less than 1000 nM for the first, less than 10000 nM for the second.

CCCS(=O)(=O)NC(=O)[C@@]12C[C@H]1/C=C\CCCCC[C@H](NC(=O)OC(C)(C)C)C(=O)N1CCC[C@H]1C(=O)N2 [Compound 2105] and CC(C)N(C(C)C)S(=O)(=O)NC(=O)[C@@]12C[C@H]1/C=C\CCCCC[C@H](NC(=O)OC(C)(C)C)C(=O)N1CCC[C@H]1C(=O)N2 [Compound 2209] cannot be ordered by IC50: less than 1000 nM for the first, less than 1000 nM for the second.

CC(C)(C)OC(=O)N[C@H]1CCCCC/C=C\[C@@H]2C[C@@]2(C(=O)NS(=O)(=O)Nc2ccccc2)NC(=O)[C@@H]2CCCN2C1=O [Compound 2246] and CCNS(=O)(=O)NC(=O)[C@@]12C[C@H]1/C=C\CCCCC[C@H](NC(=O)OC(C)(C)C)C(=O)N1CCC[C@H]1C(=O)N2 [Compound 2216] cannot be ordered by IC50: less than 1000 nM for the first, less than 10000 nM for the second.

CCCCS(=O)(=O)NC(=O)[C@@]12C[C@H]1/C=C\CCCCC[C@H](NC(=O)OC(C)(C)C)C(=O)N1CCC[C@H]1C(=O)N2 [Compound 2106] and CC(C)(C)OC(=O)N[C@H]1CCCCC/C=C\[C@@H]2C[C@@]2(C(=O)NS(=O)(=O)N2CCCCC2)NC(=O)[C@@H]2CCCN2C1=O [Compound 2219] cannot be ordered by IC50: less than 100 nM for the first, less than 10000 nM for the second.

CCOC(=O)[C@@]12C[C@H]1/C=C\CCCCC[C@H](NC(=O)OC(C)(C)C)C(=O)N1Cc3ccc(Oc4cccc(Cl)c4)cc3CC1C(=O)N2 (stereo partly drawn) [Compound 2006] and “Cyclopentyl (1aR,9S,19aR)-15-(3-chlorophenoxy)-10,18-dioxo-19a-(phenylsulfonylcarbamoyl)-1a,2,3,4,5,6,7,8,9,10,12,17,17a,18,19,19a-hexadecahydro-1H-2,5-diaza-bicyclo[13.1.0]hexadec-1(15)-eno[5,4-b]isoquinolin-9-ylcarbamate [Compound 2010]” cannot be ordered by IC50: less than 1000 nM for the first, less than 10000 nM for the second.

First: CC(C)(C)OC(=O)N[C@H]1CCCCC/C=C\[C@@H]2C[C@@]2(C(=O)NS(C)(=O)=O)NC(=O)[C@@H]2CCCN2C1=O [Compound 2103]
Second: CO[C@@H]1C[C@H]2C(=O)N[C@]3(C(=O)NS(=O)(=O)C4CC4)C[C@H]3/C=C\CCCCC[C@H](NC(=O)OC(C)(C)C)C(=O)N2C1 [Compound 2146, 1S,4R,6S,14S,18R)-tert-Butyl 4-cyclopropylsulfonylaminocarbonyl-2,15-dioxo-3,16-diaza-18-methoxy-tricyclo[14.3.0.0^4,6]nonadec-7-ene-14-yl carbamate]
The IC50 of the first is lower: less than 1000 nM for the first, greater than 10000 nM for the second.

CC(C)(C)OC(=O)N[C@H]1CCCCC/C=C\[C@@H]2C[C@@]2(C(=O)NS(=O)(=O)NC2CC2c2ccccc2)NC(=O)[C@@H]2CCCN2C1=O (stereo partly drawn) [Compound 2224] and CN(CCc1ccccc1)S(=O)(=O)NC(=O)[C@@]12C[C@H]1/C=C\CCCCC[C@H](NC(=O)OC(C)(C)C)C(=O)N1CCC[C@H]1C(=O)N2 [Compound 2248] cannot be ordered by IC50: less than 10000 nM for the first, less than 10000 nM for the second.

Going from CC(C)OC(=O)N[C@H]1CCCCC/C=C\[C@@H]2C[C@@]2(C(=O)NS(=O)(=O)Nc2ccc(Cl)cc2)NC(=O)[C@@H]2CCCN2C1=O [Compound 418] to CC(C)(C)OC(=O)N[C@H]1CCCCC/C=C\[C@@H]2C[C@@]2(C(=O)NS(=O)(=O)c2cccc3ccccc23)NC(=O)[C@@H]2CCCN2C1=O [Compound 2148], the IC50 falls from greater than 10000 nM to less than 10000 nM.

CC(C)(C)OC(=O)NC1CCCCCC=CC2CC2(C(=O)NS(=O)(=O)c2ccccc2Cl)NC(=O)C2CCCN2C1=O (stereo not drawn) [Compound 2109] and CN(CC#N)S(=O)(=O)NC(=O)[C@@]12C[C@H]1/C=C\CCCCC[C@H](NC(=O)OC(C)(C)C)C(=O)N1CCC[C@H]1C(=O)N2 [Compound 2249] cannot be ordered by IC50: less than 10000 nM for the first, less than 1000 nM for the second.

Work on CC(C)S(=O)(=O)NC(=O)[C@@]12C[C@H]1/C=C\CCCCC[C@H](NC(=O)OC(C)(C)C)C(=O)N1CCC[C@H]1C(=O)N2 [Compound 2104] yielded an IC50 of less than 10000 nM.
